Laboratory results as given in paper PMC6356585 (Viruses, 2018).

How the values were obtained:
human rhinovirus = test system: human rhinovirus; design: method as in ref 39 = [39]; settings: cited from earlier work
ZIKV SPH [1] = assay: qRT-PCR of ZIKV genomes in cells and supernatants; type: cell-based, Zika virus
C6/36 cells = type: cell-based, Ae. albopictus; settings: 10 µM compound, 96 h, CellTiter-Glo; ± SEM, three independent trials
ZIKV SPH [2] = assay: Autophagy compound library screen, ZIKV SPH titer (TCID50) in C6/36 cells; type: cell-based, Zika virus; settings: Zika virus, C6/36; 10 µM compound, MOI 0.1, 96 h, TCID50; ± SEM, three independent trials; read-out: ZIKV SPH Relative Titer in C6/36 Cells
human papillomavirus = test system: human papillomavirus; design: method as in ref 39 = [39]; settings: cited from earlier work
ZIKV IbH = assay: Autophagy compound screen in Vero cells infected with ZIKV IbH; type: cell-based, Zika virus; settings: African-lineage ZIKV IbH, 10 µM
[3] = test system: autophagic vesicles in Vero cells; assay: Autophagy detection (CYTO-ID) in Vero cells; type: cell-based; settings: 10 µM compound, 24 h, CYTO-ID green MFI vs DMSO control
ZIKV SPH [4] = assay: ZIKV SPH titer in compound-treated human neurons; type: cell-based, Zika virus; settings: 10 µM, ZIKV SPH MOI 1.0, 4 days, TCID50
human rotavirus = test system: human rotavirus; design: method as in ref 39 = [39]; settings: cited from earlier work
ZIKV SPH [5] = assay: Time-of-addition assay in Vero cells; type: cell-based, Zika virus; settings: for ZIKV titer, time-of-addition / Decrease of ZIKV titers, time-of-addition: Vero
ZIKV SPH [6] = assay: 7-Ketocholesterol dose-response, ZIKV SPH titer in Vero cells; type: cell-based; settings: Zika virus, MOI 1, 24 h, 0–27 µM, TCID50, R^2 = 0.9078
ZIKV SPH [7] = assay: 7-Ketocholesterol and ZIKV pre-incubation (virucidal effect); type: cell-based, Zika virus; settings: 200 µM 7-KC, 1 h, room temperature, then diluted to approx. 0.2 µM on Vero cells, MOI 0.1, 40 hpi
ZIKV [8] = test system: ZIKV; design: method as in ref 43 = [43]; settings: by inhibiting viral entry; cited from earlier work
ZIKV [9] = test system: ZIKV; design: method as in ref 43 = [43]; settings: by inhibiting viral entry; cited from earlier work; remark: listed apart in the source

Q: Which results are given for `CC(C)CCC[C@@H](C)[C@H]1CC[C@H]2[C@@H]3C(=O)C=C4C[C@@H](O)CC[C@]4(C)[C@H]3CC[C@]12C` [7-Ketocholesterol]?
A: Activity against human rhinovirus (human rhinovirus): minor activity; Budding/release efficiency (genomes in supernatant vs cell associated genomes) (ZIKV SPH [1]; Vero cells, 10 µM 7-KC, 24 hpi): approximately 30 % of untreated cells; Number of viral genome copies in the supernatant (ZIKV SPH [1]; Vero cells, 10 µM 7-KC, 24 hpi): reduced; Levels of ZIKV RNA in infected cells (ZIKV SPH [1]; Vero cells, 10 µM 7-KC, total cellular RNA at 24 hpi): not significantly altered; Specific infectivity: 1 in N genomes infectious (ZIKV SPH [1]; infectious titer vs genome copies in supernatant, Vero, 7-KC present, control 1 in 1200): ~9000 genomes; C6/36 Viability (C6/36 cells): 36 ± 5.1% of untreated control; activity at 10 µM (ZIKV SPH [2]): 9.8 ± 3.3%; Activity against human papillomavirus (human papillomavirus): no activity; Reduction of ZIKV IbH (ZIKV IbH): more than 90 % of control; ZIKV IbH titer in Vero cells compared to control (ZIKV IbH): reduced ZIKV IbH titers; ZIKV IbH titer in Vero cells compared to control (ZIKV IbH; listed as 7-KC): dropped titers more than a log; Autophagy Activity Factor (AAF) [3]: 27.01; ZIKV titer in human neurons (ZIKV SPH [4]): reduced ZIKV titer; Activity against human rotavirus (human rotavirus): no activity; ZIKV titer, time-of-addition (ZIKV SPH [5]; 10 µM 7-KC added 12 h after infection, 24 hpi): ZIKV inhibition continued; ZIKV titer, time-of-addition (ZIKV SPH [5]; 10 µM 7-KC added 18 h after infection, 24 hpi): slight decrease in titer; Decrease of ZIKV titers, time-of-addition (ZIKV SPH [5]; 10 µM 7-KC added at 2 hpi, MOI 0.1, 24 hpi): 90%; Decrease of ZIKV titers, time-of-addition (ZIKV SPH [5]; 10 µM 7-KC added at 6 hpi, MOI 0.1, 24 hpi): 90%; Decrease of ZIKV titers, time-of-addition (ZIKV SPH [5]; 10 µM 7-KC added at the time of infection, MOI 0.1, 24 hpi): 90%; ZIKV titer, time-of-addition (ZIKV SPH [5]; 10 µM 7-KC, pre-treating cells 2 h before infection, MOI 0.1, 24 hpi): did not reduce viral titers; Decrease in infectious virions (ZIKV SPH [5]; Vero cells, 10 µM 7-KC, 24 hpi): greater than 90%; IC50 (ZIKV SPH [6]): 4.06 µM; ZIKV titer after preincubation of virus stock with compound (virucidal effect) (ZIKV SPH [7]): did not reduce viral titers

Q: For `C[C@H](CCCC(C)(C)O)[C@H]1CC[C@H]2[C@@H]3CC=C4C[C@@H](O)CC[C@]4(C)[C@H]3CC[C@]12C` [25-hydroxycholesterol], which “ZIKV titers in vivo” value (ZIKV [8]) is on record?
A: reduced ZIKV titers

Q: What about the “ZIKV titers in vitro” value (ZIKV [9]) of the same compound?
A: reduced ZIKV titers
